The values below come from patent US20260125421A1, “ANTIVIRAL COMPOUNDS” (Hoffmann-La Roche Inc., priority 2022, published 2026).

Holding throughout (experiment): biochemical
One assay deals with SARS-CoV 3CL^pro (Severe acute respiratory syndrome coronavirus, UniProt P0C6X7).
The target in another assay is MERS-CoV 3CL^pro (Middle East respiratory syndrome-related coronavirus, UniProt K9N7C7).
For the next assay, the target named is T1, SARS-CoV-2 3CL^pro (Severe acute respiratory syndrome coronavirus 2, UniProt P0DTD1).
T1 construct: […]; made in house; host or cells: Escherichia coli

The next assay has as its target T2, HCoV-229E 3CL^pro (Human coronavirus 229E, UniProt P0C6X1).
T2 construct: […]; made in house; host or cells: E. coli BL21 (DE3)

pIC50: −log10 of the molar value.

Chain of MERS-CoV 3CL^pro (K9N7C7 3248-3553): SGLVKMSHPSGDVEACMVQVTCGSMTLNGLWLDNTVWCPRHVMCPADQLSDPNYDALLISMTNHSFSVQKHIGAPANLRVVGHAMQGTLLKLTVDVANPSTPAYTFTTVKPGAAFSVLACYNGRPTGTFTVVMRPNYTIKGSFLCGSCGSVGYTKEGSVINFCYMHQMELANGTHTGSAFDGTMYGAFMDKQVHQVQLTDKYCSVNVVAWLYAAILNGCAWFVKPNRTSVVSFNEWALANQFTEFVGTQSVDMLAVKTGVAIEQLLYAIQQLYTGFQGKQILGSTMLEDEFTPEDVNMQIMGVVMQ
T2 sequence (P0C6X1 2966-3267): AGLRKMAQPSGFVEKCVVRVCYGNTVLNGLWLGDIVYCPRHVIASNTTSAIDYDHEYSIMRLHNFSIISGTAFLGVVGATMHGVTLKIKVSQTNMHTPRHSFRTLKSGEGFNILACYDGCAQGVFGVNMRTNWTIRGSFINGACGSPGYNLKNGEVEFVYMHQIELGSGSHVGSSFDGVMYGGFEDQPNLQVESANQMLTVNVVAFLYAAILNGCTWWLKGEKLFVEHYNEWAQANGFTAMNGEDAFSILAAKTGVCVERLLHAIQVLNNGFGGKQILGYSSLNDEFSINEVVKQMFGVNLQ

In general, pIC50 refers to the IC50 on a negative log10 scale, so that one unit is a factor of ten. A higher pIC50 goes with a low IC50. Consider `CC1(C)CC(CN(NC(=O)[C@@H]2[C@H]3CCC[C@H]3CN2C(=O)[C@@H](NC(=O)[C@@H]2CC2(F)F)C(C)(C)C)C(=O)[C@H](F)Cl)C(=O)N1` (mixture of isomers) [Example 3, (1S)—N-[(1S)-1-[(3S,3aS,6aR)-3-[[[(2R)-2-chloro-2-fluoro-acetyl]-[rac-(5,5-dimethyl-2-oxo-pyrrolidin-3-yl)methyl]amino]carbamoyl]-3,3a,4,5,6,6a-hexahydro-1H-cyclopenta[c]pyrrole-2-carbonyl]-2,2-dimethyl-propyl]-2,2-difluoro-cyclopropanecarboxamide], for which the negative logarithm of the IC50 (pIC50) is 7.55 against SARS-CoV 3CL^pro, 6.07 at MERS-CoV 3CL^pro, 7.64 against SARS-CoV-2 3CL^pro and 5.60 on HCoV-229E 3CL^pro.
For `C[C@H]1C[C@H](CN(NC(=O)[C@@H]2[C@@H]3[C@H](CN2C(=O)[C@@H](NC(=O)[C@@H]2CC2(F)F)C(C)(C)C)C3(C)C)C(=O)[C@H](F)Cl)C(=O)N1` [Example 31, (1S)-N-[(1S)-1-[(1R,2S,5S)-2-[[[(2R)-2-chloro-2-fluoro-acetyl]-[[(3R,5S)-5-methyl-2-oxo-pyrrolidin-3-yl]methyl]amino]carbamoyl]-6,6-dimethyl-3-azabicyclo[3.1.0]hexane-3-carbonyl]-2,2-dimethyl-propyl]-2,2-difluoro-cyclopropanecarboxamide], in that order: 7.28, 6.26, 7.60 and 6.94.
The corresponding values for `CCC(CC)[C@H](NC(=O)C(F)F)C(=O)N1C[C@@H]2CCC[C@@H]2[C@H]1C(=O)NN(C[C@H]1CC(C)(C)NC1=O)C(=O)[C@@H](F)Cl` [Example 18, N-[(1S)-1-[(3S,3aS,6aR)-3-[[[(2S)-2-chloro-2-fluoro-acetyl]-[[(3R)-5,5-dimethyl-2-oxo-pyrrolidin-3-yl]methyl]amino]carbamoyl]-3,3a,4,5,6,6a-hexahydro-1H-cyclopenta[c]pyrrole-2-carbonyl]-2-ethyl-butyl]-2,2-difluoro-acetamide] are 7.64, 6.46, 7.92 and 6.48.
The corresponding values for `CC(C)(C)[C@H](NC(=O)[C@@H]1CC1(F)F)C(=O)N1C[C@@H]2CCC[C@@H]2[C@H]1C(=O)NN(C[C@@H]1C(=O)N[C@@H]2C[C@H]12)C(=O)[C@@H](F)Cl` [Example 40, (1S)-N-[(1S)-1-[(3S,3aS,6aR)-3-[[[(2S)-2-chloro-2-fluoro-acetyl]-[[(1R,4R,5R)-3-oxo-2-azabicyclo[3.1.0]hexan-4-yl]methyl]amino]carbamoyl]-3,3a,4,5,6,6a-hexahydro-1H-cyclopenta[c]pyrrole-2-carbonyl]-2,2-dimethyl-propyl]-2,2-difluoro-cyclopropanecarboxamide] are 6.91, 6.27, 7.19 and 6.59.
For the compound `CC1(C)C[C@H](CN(NC(=O)[C@@H]2[C@H]3CCC[C@H]3CN2C(=O)[C@@H](NC(=O)[C@@H]2CC2(F)F)C(C)(C)C)C(=O)[C@@H](F)Cl)C(=O)N1` [Example 2b, (1S)—N-[(1S)-1-[(3S,3aS,6aR)-3-[[[(2S)-2-chloro-2-fluoro-acetyl]-[[(3R)-5,5-dimethyl-2-oxo-pyrrolidin-3-yl]methyl]amino]carbamoyl]-3,3a,4,5,6,6a-hexahydro-1H-cyclopenta[c]pyrrole-2-carbonyl]-2,2-dimethyl-propyl]-2,2-difluoro-cyclopropanecarboxamide], the pIC50 against SARS-CoV 3CL^pro is 5.76; against MERS-CoV 3CL^pro, under 5.00; on SARS-CoV-2 3CL^pro it was 6.04; at HCoV-229E 3CL^pro, under 5.00.
With `CC1(C)C[C@@H](CN(NC(=O)[C@@H]2[C@H]3CCC[C@H]3CN2C(=O)[C@@H](NC(=O)[C@@H]2CC2(F)F)C(C)(C)C)C(=O)[C@@H](F)Cl)C(=O)N1` [Example 2a, (1S)—N-[(1S)-1-[(3S,3aS,6aR)-3-[[[(2S)-2-chloro-2-fluoro-acetyl]-[[(3S)-5,5-dimethyl-2-oxo-pyrrolidin-3-yl]methyl]amino]carbamoyl]-3,3a,4,5,6,6a-hexahydro-1H-cyclopenta[c]pyrrole-2-carbonyl]-2,2-dimethyl-propyl]-2,2-difluoro-cyclopropanecarboxamide], the pIC50 at SARS-CoV 3CL^pro is 7.19; against MERS-CoV 3CL^pro it was 5.54; against SARS-CoV-2 3CL^pro, 7.54; against HCoV-229E 3CL^pro, 5.11.
For `CC1(C)C[C@@H](CN(NC(=O)[C@@H]2[C@H]3CCC[C@H]3CN2C(=O)[C@@H](NC(=O)[C@@H](F)Cl)C(C)(C)C)C(=O)[C@H](F)Cl)C(=O)N1` [Example 15, (2S)-N-[(1S)-1-[(3S,3aS,6aR)-3-[[[(2R)-2-chloro-2-fluoro-acetyl]-[[(3S)-5,5-dimethyl-2-oxo-pyrrolidin-3-yl]methyl]amino]carbamoyl]-3,3a,4,5,6,6a-hexahydro-1H-cyclopenta[c]pyrrole-2-carbonyl]-2,2-dimethyl-propyl]-2-chloro-2-fluoro-acetamide], in that order: 7.92, 6.31, 7.96 and 6.23.
The corresponding values for `CC1(C)C[C@@H](CN(NC(=O)[C@@H]2[C@@H]3[C@H](CN2C(=O)[C@@H](NC(=O)[C@@H]2CC2(F)F)C(C)(C)C)C3(C)C)C(=O)[C@@H](F)Cl)C(=O)N1` [Example 23, (1S)-N-[(1S)-1-[(1R,2S,5S)-2-[[[(2S)-2-chloro-2-fluoro-acetyl]-[[(3S)-5,5-dimethyl-2-oxo-pyrrolidin-3-yl]methyl]amino]carbamoyl]-6,6-dimethyl-3-azabicyclo[3.1.0]hexane-3-carbonyl]-2,2-dimethyl-propyl]-2,2-difluoro-cyclopropanecarboxamide] are 7.07, 5.68, 7.27 and 5.26.
Regarding `CCC(CC)[C@H](NC(=O)[C@H](F)Cl)C(=O)N1C[C@@H]2CCC[C@@H]2[C@H]1C(=O)NN(C[C@@H]1CC(C)(C)NC1=O)C(=O)[C@H](F)Cl` [Example 9, (2R)-N-[(1S)-1-[(3S,3aS,6aR)-3-[[[(2R)-2-chloro-2-fluoro-acetyl]-[[(3S)-5,5-dimethyl-2-oxo-pyrrolidin-3-yl]methyl]amino]carbamoyl]-3,3a,4,5,6,6a-hexahydro-1H-cyclopenta[c]pyrrole-2-carbonyl]-2-ethyl-butyl]-2-chloro-2-fluoro-acetamide], the pIC50 on SARS-CoV 3CL^pro was 8.15; against MERS-CoV 3CL^pro it was 6.60; against SARS-CoV-2 3CL^pro, 8.15; at HCoV-229E 3CL^pro, 6.62.
For `CC1(C)C[C@@H](CN(NC(=O)[C@@H]2[C@@H]3[C@H](CN2C(=O)[C@@H](NC(=O)[C@H](F)Cl)C(C)(C)C)C3(C)C)C(=O)[C@H](F)Cl)C(=O)N1` [Example 20], the pIC50 at SARS-CoV 3CL^pro was 7.49; against MERS-CoV 3CL^pro it was 5.97; against SARS-CoV-2 3CL^pro it was 7.62; against HCoV-229E 3CL^pro, 5.69.
